According to patent publication US20230355605A1, “DRUG FOR ENHANCING FIBRINOLYTIC SYSTEM, AND USE THEREFOR” (priority 2020, published 2023):

Experiments:
[1] = human, in vivo
Description: A placebo-controlled repeated oral dose study was performed to examine the safety, pharmacokinetics, and pharmacodynamics of the present compound during repeated oral dose administration in healthy Japanese adult males (subjects).
The oral dosages were 60 mg (step 1) and 120 mg (step 2) per day, and the number of subjects per step was 9 (6 subjects in the present compound group and 3 subjects in the placebo group). The transition from one step to the next was made after confirming safety. The present compound or the placebo was orally administered once daily after breakfast for 7 days.
After administration of the present compound and the placebo, the following items were evaluated in each subject. Safety: vital signs (axillary temperature, blood pressure while seated, and pulse rate while seated), 12-lead electrocardiogram, laboratory tests (hematological test, blood biochemical test, blood coagulation test, urinalysis, and fecal test), and adverse events • Pharmacokinetics: plasma concentration of the unchanged drug and metabolite concentration • Pharmacological activities: PAI-1 activity and t-PA activity

t-PA = t-PA activity in blood, phase I repeated oral dose study; type: in vivo, human
Description: The pharmacological activities (PAI-1 activity and t-PA activity) were evaluated using blood collected from the subjects before and after administration of the present compound or the placebo as test samples. Blood was collected before administration and 2, 4, and 8 hours after administration on the first day of the experiment (day 1) and day 7 after the start of the experiment, and on the other days, blood was collected once a day before administration (only before administration on days 2 to 6, day 8, and day 11 after the start of administration).
After collecting blood samples from the subjects, the samples were treated with 0.5 M sodium citrate (pH of 4.3) and centrifuged at 4° C., 2,500 g for 15 minutes to obtain plasma. The collected plasma was used for measurement of t-PA activity and stored frozen at -80° C. until measurement.
The t-PA activity was measured using a ZYMUPHEN tPA Activity kit (produced by HYPHEN BioMed). In this system, a plasma sample collected from a subject is reacted with human plasminogen to form plasmin by the action of tPA, the plasmin is reacted with a substrate specific to plasmin, and pNA, which is a degradation product produced, is measured by the absorbance at a wavelength of 405 nm with a plate reader.

human-derived PAI-1 = human-derived PAI-1 (Homo sapiens, UniProt P05121); test: Human plasma clot fibrinolysis test (PAI-1 inhibitory effect); type: biochemical; details: human plasma clot with t-PA and human-derived PAI-1
Sequence of human-derived PAI-1 (P05121 24-402): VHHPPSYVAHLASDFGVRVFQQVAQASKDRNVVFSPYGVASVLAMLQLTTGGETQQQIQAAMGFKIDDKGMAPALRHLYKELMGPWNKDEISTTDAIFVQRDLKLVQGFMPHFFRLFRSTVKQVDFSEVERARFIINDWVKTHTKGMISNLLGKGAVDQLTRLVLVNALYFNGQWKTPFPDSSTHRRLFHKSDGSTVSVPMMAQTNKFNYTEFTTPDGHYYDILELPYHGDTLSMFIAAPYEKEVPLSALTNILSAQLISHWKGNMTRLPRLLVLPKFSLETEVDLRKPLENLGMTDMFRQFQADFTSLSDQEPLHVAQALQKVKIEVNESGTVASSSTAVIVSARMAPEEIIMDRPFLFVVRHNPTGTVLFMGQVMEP
Description: A human plasma clot fibrinolysis test was performed to evaluate the PAI-1 inhibitory effect of the present compound.
Specifically, human-derived PAI-1 and the present compound were added to a reaction mixture containing t-PA, which dissolves blood clots caused by addition of thrombin to normal human pooled plasma, and the inhibition of the effect of t-PA by PAI-1 (PAI-1 effect) and the removal of the PAI-1 effect by the present compound (PAI-1 inhibition) (fibrinolysis enhancement) were evaluated.

cynomolgus monkeys = test: 39-week repeated oral dose toxicity study in cynomolgus monkeys; type: in vivo; details: 10, 30, 100 mg/kg oral, 39 weeks
Description: A GLP-compliant 39-week repeated oral dose study was performed in cynomolgus monkeys at dosages of 10, 30, and 100 mg/kg.

[2] = tested on: cynomolgus monkey model of saphenous arterial thrombus; test: Cynomolgus monkey model of saphenous arterial thrombus (PIT model); type: in vivo
Description: The thrombus formation inhibitory effect of the present compound was evaluated using a cynomolgus monkey model of saphenous arterial thrombus (PIT model) .
Before the procedure, the present compound suspended in a 0.5% CMC-Na aqueous solution was orally administered to test groups of cynomolgus monkeys at dosages of 0.1, 0.3, 1, and 3 mg/kg. […] A light irradiation probe was placed on a saphenous artery of each cynomolgus monkey to cause thrombus formation by applying green light of 540 nm for 20 minutes at the time of intravenously administering rose bengal (20 mg/kg). A decrease in blood flow due to this thrombus formation was measured with a pulse Doppler blood flowmeter, and the thrombus formation inhibitory effect of the present compound was evaluated by measuring the occlusion time on the first day and the cumulative occlusion time.

pregnant rats = test: Embryo-fetal developmental toxicity study; type: in vivo, rat; details: oral, days 7 to 17 of gestation
Description: The effect of oral administration of the present compound on embryo-fetal development was examined using rats. Specifically, the present compound was orally administered to pregnant rats from implantation to closure of the hard palate (days 7 to 17 of gestation), and the effect on the mothers, and embryos and fetuses was examined. Furthermore, the plasma concentration of the present compound after administration was measured, and its change was examined. During the study period, the general conditions of all of the animals were observed, and their body weights were measured; in the toxicity group, food consumption was measured; a Cesarean section test was performed on day 20 of gestation. Thereafter, fetal visceral and skeletal specimens were prepared, and a fetal examination was performed.

CHL/IU cells = test: Chromosomal abnormality study; type: cell-based, Chinese hamster; details: with and without S9 mix
Description: A study on the clastogenic property of the present compound was performed in the presence of a drug metabolism-activating enzyme (S9 mix) (hereinafter referred to as a “metabolic activation method”) and in the absence of a drug metabolism-activating enzyme (S9 mix) (hereinafter referred to as a “direct method”) using mammalian cultured cells (Chinese hamster cultured cells (CHL/IU cells)).

[3] = type: physicochemical
Description: The present compound (yellowish white powder) was prepared in the following shipping packaging form and then subjected to an accelerated stability study (40° C., 75% RH, 6 months).
Inner package: A double polyethylene bag (100 × 200 mm) was filled with the present compound and sealed with a zip tie. Outer package: The double polyethylene bag filled with the present compound was placed in a fiber drum, and the fiber drum was sealed.
The present compound was stored in the above packaging form under the conditions of 40° C.12° C. and 75% RH15% RH for 6 months. At points after 1 month, 3 months, and 6 months, appearance observation, an identification test (ultraviolet spectrum, infrared absorption spectrum, flame reaction), water content analysis (water absorption), analysis of the content of the present compound, and a purity test (impurity profile) were performed to evaluate the stability of the present compound.

[4] = tested on: immature rat bone marrow erythrocytes; test: Micronucleus study in rats; details: in vivo
Description: The present compound was orally administered to rats to examine its micronucleus-inducing properties and bone marrow cell proliferation suppressive effect on immature bone marrow erythrocytes.
Specifically, the present compound was orally administered to rats twice 24 hours apart, and bone marrow smears were prepared 18 to 24 hours after the last administration. 2000 immature erythrocytes (IEs) were observed per individual, and the percentage of micronucleated immature erythrocytes (micronucleated IEs, MNIEs) contained in the immature erythrocytes [MNIEs (%)] was calculated. In addition, 1000 erythrocytes were observed as the total erythrocyte count per individual, and the percentage of IEs in the total erythrocytes [IEs (%)] was determined.

For `O=C(Nc1ccc(Cl)cc1C(=O)[O-])c1cccc(-c2cccc3cccnc23)c1.[Na+]` [present compound, sodium 5-chloro-2-({ [3-(quinolin-8-yl)phenyl]carbonyl}amino)benzoate], the “AUC on day 7 compared with day 1” value [1] was “increased”, the “Tmax, t½ 0-24h, and Cmax′” value [1] was “not affected by repeated administration” and the “t-PA activity in blood vs placebo” value (t-PA; 60 mg/day oral, days 1 and 7) was “neither PAI-1 activity nor t-PA activity was different”. For the same molecule, the “time after administration of maximal increase in t-PA activity” value (t-PA; 120 mg/day oral) was 8 h, the “t-PA activity in blood” value (t-PA; 120 mg/day oral, days 1 and 7) was “increased” and the “concentration with PAI-1 inhibitory effect (fibrinolysis enhancement effect)” value (human-derived PAI-1) was no less than 10 µM. The “deaths during the administration period” value (cynomolgus monkeys) was “No deaths”, the “effect on general condition, body weight, food consumption, ophthalmology, ECG, hematology, urinalysis, necropsy, organ weights” value (cynomolgus monkeys) was “No effect” and the “initial occlusion time vs vehicle group” value ([2]; 0.3 mg/kg oral, P<0.05) was “Significant prolongation”. For the same molecule, the “cumulative occlusion time vs vehicle group” value ([2]; 0.1, 0.3, 1.0, 3.0 mg/kg oral, P<0.01, dose-dependent) was “significant reductions”, the minimum effective dosage ([2]; oral administration to monkeys) was 0.1 mg/kg and the “effect on pregnancy, embryos and fetuses” value (pregnant rats) was “no effect on maintenance of pregnancy, no embryolethal effect, no fetal growth suppressive effect, and no teratogenic effect”. The “no-observed-adverse-effect level for embryos and fetuses” value (pregnant rats) was 1000 mg/kg/day, the “no-observed-adverse-effect level for the mothers” value (pregnant rats) was 1000 mg/kg/day and the clastogenic effect (CHL/IU cells) was “no clastogenic effect”. The “period stable in the accelerated stability study” value ([3]; 6 months) was “at least 6 months”, the “change from the state before storage (appearance, identification, water content, content, purity)” value ([3]; 40° C., 75% RH, after 1, 3 and 6 months, shipping packaging) was “no change” and the “micronucleus-inducing effect on immature rat bone marrow erythrocytes” value [4] was “no micronucleus-inducing effect”. For the same molecule, the “proliferation suppressive effect on bone marrow cells” value [4] was “no proliferation suppressive effect”.
